Experimental data taken from US12578343B2, “Selective ACKR3 modulators and uses thereof” (Luxembourg Institute of Health (LIH), priority 2019, dated 2026).

Key:
MOR = molecular target: T1, MOR (Homo sapiens, UniProt P35372); assay type: cell-based; settings: concentrations as high as 3 μM
T1 construct: expressed in transfected cells; host or cells: U87 cells, transient co-transfection of pNBe vectors
Description: (§1) In brief, 1.2×10^6 U87 cells were plated in 10 cm-culture dishes and 48 hours later co-transfected with pNBe vectors encoding GPCRs C-terminally tagged to SmBiT and human β-arrestin-1 or -2 or mini G proteins (mG, engineered GTPase domains of Gα subunits,) N-terminally fused to LgBiT. 48 hours post-transfection cells were harvested, incubated 25 minutes at 37° C. with Nano-Glo Live Cell substrate diluted 200-fold and distributed into white 96-well plates (5×10^4 cells per well). Ligand-induced, β-arrestin and mG recruitment to GPCRs was evaluated with a Mithras LB940 luminometer (Berthold Technologies) for 20 minutes. For concentration-response curves, the signal recorded with a saturating concentration of full agonist for each receptor was set as 100%.

DOR = molecular target: T2, DOR (Homo sapiens, UniProt P41143); assay: β-arrestin-1 recruitment to DOR (NanoBiT, U87 cells); assay type: cell-based; settings: concentrations as high as 3 μM
T2 construct: expressed in transfected cells; host or cells: U87 cells, transient co-transfection of pNBe vectors
T2 sequence (P41143 whole entry): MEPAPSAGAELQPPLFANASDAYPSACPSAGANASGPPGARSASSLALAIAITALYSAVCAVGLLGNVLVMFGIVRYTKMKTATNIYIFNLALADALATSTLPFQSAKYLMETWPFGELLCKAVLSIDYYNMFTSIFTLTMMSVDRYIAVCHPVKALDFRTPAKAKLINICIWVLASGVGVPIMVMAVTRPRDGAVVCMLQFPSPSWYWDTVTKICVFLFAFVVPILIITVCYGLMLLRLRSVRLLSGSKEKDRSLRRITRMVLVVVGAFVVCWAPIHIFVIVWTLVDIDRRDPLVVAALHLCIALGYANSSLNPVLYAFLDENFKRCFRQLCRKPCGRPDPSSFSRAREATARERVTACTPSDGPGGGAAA
Description: as §1

NOP = molecular target: T3, NOP (Homo sapiens, UniProt P41146); assay: β-arrestin-1 recruitment to NOP (NanoBiT, U87 cells); assay type: cell-based; settings: concentrations as high as 3 μM
T3 construct: expressed in transfected cells; host or cells: U87 cells, transient co-transfection of pNBe vectors
T3 sequence (P41146 whole entry): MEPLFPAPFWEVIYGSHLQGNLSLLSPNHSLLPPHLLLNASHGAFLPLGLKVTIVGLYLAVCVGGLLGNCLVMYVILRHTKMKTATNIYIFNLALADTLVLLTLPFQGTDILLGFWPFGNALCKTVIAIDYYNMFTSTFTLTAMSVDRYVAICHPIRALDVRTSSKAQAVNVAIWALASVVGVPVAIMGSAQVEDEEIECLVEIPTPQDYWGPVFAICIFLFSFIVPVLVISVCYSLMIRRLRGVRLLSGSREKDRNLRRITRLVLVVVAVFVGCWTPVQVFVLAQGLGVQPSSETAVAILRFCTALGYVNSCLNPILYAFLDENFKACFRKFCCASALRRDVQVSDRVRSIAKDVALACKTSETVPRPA
Description: as §1

[1] = tested on: 24 other chemokine receptors; assay: β-arrestin recruitment to all other chemokine receptors (panel, NanoBiT, U87 cells); assay type: cell-based, human; settings: 3 μM
Description: as §1

mouse ACKR3 (mACKR3) = molecular target: T4, mouse ACKR3 (mACKR3) (Mus musculus, UniProt P56485); assay: β-arrestin-1 recruitment to mouse ACKR3; assay type: cell-based
T4 construct: expressed in transfected cells; host or cells: U87 cells
T4 sequence (P56485 whole entry): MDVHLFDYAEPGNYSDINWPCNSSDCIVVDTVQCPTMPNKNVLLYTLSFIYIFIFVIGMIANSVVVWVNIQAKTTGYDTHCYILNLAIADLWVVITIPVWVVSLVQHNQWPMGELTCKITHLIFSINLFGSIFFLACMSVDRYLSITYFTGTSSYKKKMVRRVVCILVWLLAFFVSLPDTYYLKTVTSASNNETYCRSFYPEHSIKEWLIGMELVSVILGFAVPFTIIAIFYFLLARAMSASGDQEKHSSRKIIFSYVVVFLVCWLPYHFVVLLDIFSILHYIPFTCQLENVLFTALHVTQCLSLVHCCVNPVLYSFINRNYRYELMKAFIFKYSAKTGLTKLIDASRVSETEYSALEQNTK
T4 sequence (P49407 whole entry partner): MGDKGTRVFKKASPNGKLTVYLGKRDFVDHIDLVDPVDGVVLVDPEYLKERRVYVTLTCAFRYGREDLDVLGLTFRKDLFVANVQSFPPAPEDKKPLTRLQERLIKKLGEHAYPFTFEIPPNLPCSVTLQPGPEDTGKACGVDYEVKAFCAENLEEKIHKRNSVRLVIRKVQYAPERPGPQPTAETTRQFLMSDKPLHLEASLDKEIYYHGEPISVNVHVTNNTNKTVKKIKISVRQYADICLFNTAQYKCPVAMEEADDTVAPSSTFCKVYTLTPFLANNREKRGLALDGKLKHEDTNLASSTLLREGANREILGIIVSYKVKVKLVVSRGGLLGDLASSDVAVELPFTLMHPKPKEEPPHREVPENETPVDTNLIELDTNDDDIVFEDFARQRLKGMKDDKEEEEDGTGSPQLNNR
Description: as §1

smNPCs = assay: Uptake of labelled dynorphin A (1-13) by smNPCs, imaging flow cytometry; assay type: cell-based, human; settings: 3 μM, 15 minutes pre-treatment
Description: U87 cells derived from human brain glioblastoma were obtained through the NIH AIDS Reagent Program from Dr. Deng and Dr. Littman. U87 stably expressing ACKR3 and CXCR4 were generated as previously described in Szpakowska, M. et al. Different contributions of chemokine N-terminal features attest to a different ligand binding mode and a bias towards activation of ACKR3/CXCR7 compared with CXCR4 and CXCR3. Br J Pharmacol 175, 1419-1438 (2018). U87 cells were grown in Dulbecco's modified Eagle medium (DMEM) supplemented with 15% foetal bovine serum and penicillin/streptomycin (100 Units/ml and 100 μg/ml). U87-ACKR3 and U87-CXCR4 were maintained under puromycin (1 μg/ml) selective pressure. smNPCs (small molecule neural precursor cells) derived from a healthy donor (C1-1) whose informed consent was obtained, were grown on Geltrex™-coated surface in N2B27 medium supplemented with 0.5 μM Purmorphamine, 3 μM CHIR 99021 and 150 μM ascorbic acid. N2B27 medium consisted of DMEM/F12 and NeuroBasal medium 50:50 with 0.5% N2 supplement, 1% B27 supplement lacking vitamin A, 1% GlutaMAX and 1% penicilin/streptomycin. Medium was renewed every other day.
Cells were distributed into 96-well plates (2×10^5 cells/well in Opti-MEM for U87 and U87-ACKR3 and 3×10^5 cells/well in N2B27 medium for smNPCs). […] For comparison of labelled opioid peptide-uptake by ACKR3 or classical opioid receptors, 1.2×10^6 U87 cells were seeded in 10-cm dishes and transfected 48 hours later with 4 μg pcDNA3.1 plasmid encoding ACKR3 or KOR, MOR or NOP. 48 hours post transfection, cells were harvested and treated as described above. Dead cells were excluded using Zombie NIR or Zombie Green viability dye (BioLegend) for FAM-labelled peptides and Cy5-labelled peptides, respectively. Images of 1×10^4 in-focus, living single cells were acquired with an ImageStream MKII imaging flow cytometer (Amnis) using 40× magnification (60× magnification for smNPCs). Samples were analysed using Ideas6.2 software. The number of spots per cell was determined using a mask-based software wizard.

ACKR3 [2] = molecular target: T5, ACKR3 (Homo sapiens, UniProt P25106); assay type: cell-based; design: expressed in transfected cells; host or cells: U87 cells, transient co-transfection of pNBe vectors
Target sequence in this assay (P25106 whole entry): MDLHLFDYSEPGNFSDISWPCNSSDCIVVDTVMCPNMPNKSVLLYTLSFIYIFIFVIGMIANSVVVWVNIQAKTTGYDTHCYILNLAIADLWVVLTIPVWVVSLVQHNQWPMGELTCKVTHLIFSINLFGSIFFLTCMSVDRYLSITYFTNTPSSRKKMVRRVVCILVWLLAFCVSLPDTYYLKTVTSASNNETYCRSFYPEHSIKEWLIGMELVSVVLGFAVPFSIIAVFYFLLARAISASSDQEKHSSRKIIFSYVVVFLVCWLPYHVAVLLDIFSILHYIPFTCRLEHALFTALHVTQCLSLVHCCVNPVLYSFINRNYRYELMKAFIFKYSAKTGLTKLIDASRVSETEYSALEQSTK
Target sequence in this assay (P49407 whole entry partner): as the sequence (P49407 whole entry partner) above

KOR = KOR (Homo sapiens, UniProt P41145); assay: β-arrestin-1 recruitment to KOR (NanoBiT, U87 cells); assay type: cell-based; design: expressed in transfected cells; host or cells: U87 cells, transient co-transfection of pNBe vectors; settings: concentrations as high as 3 μM
Sequence of KOR (P41145 whole entry): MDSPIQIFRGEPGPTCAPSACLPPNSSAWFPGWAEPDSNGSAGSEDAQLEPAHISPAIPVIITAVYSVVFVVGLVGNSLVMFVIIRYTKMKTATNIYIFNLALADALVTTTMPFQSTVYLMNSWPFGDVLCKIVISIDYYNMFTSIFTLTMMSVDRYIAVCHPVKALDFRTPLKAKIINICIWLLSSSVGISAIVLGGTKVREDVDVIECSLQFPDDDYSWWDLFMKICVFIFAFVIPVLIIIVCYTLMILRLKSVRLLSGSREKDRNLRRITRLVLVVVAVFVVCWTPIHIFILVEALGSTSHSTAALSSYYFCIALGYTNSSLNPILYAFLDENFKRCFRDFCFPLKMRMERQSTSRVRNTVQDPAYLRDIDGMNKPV
Description: as §1

ACKR3 [3] = molecular target: T5, ACKR3; assay: Binding competition with Alexa Fluor 647-labelled CXCL12 on U87-ACKR3 cells, flow cytometry; design: expressed in transfected cells; for the receptor comparison in the uptake assay, transient pcDNA3.1); settings: 5 nM CXCL12-AF647, U87-ACKR3 cells
Description: 1.3. Binding Competition Assays
U87-ACKR3 cells were distributed into 96-well plates (1.5×10^5 cells per well) and incubated with a mixture of 5 nM CXCL12-AF647 and unlabelled chemokines or opioid peptides at indicated concentrations for 90 minutes on ice, then washed twice with FACS buffer (PBS, 1% BSA, 0.1% NaN3) at 4° C. Dead cells were excluded using Zombie Green viability dye (BioLegend). ACKR3-negative U87 cells were used to evaluate non-specific binding of CXCL12-AF647. […] The signal obtained for CXCL12-AF647 in the absence of unlabelled chemokines was used to define 100% binding. Ligand binding was quantified by mean fluorescence intensity on a BD FACS Fortessa cytometer (BD Biosciences).
Target sequence in this assay (P25106 whole entry): as the sequence (P25106 whole entry) above

ACKR3 [4] = molecular target: T5, ACKR3; assay: ACKR3-mediated depletion of extracellular dynorphin A monitored by its ability to activate KOR (U87-ACKR3 cells); assay type: cell-based; design: expressed in transfected cells; for the receptor comparison in the uptake assay, transient pcDNA3.1); settings: pre-treatment of ACKR3-expressing cells, saturating concentration
Description: as §1
Target sequence in this assay (P25106 whole entry): as above

T1 sequence (P35372 whole entry): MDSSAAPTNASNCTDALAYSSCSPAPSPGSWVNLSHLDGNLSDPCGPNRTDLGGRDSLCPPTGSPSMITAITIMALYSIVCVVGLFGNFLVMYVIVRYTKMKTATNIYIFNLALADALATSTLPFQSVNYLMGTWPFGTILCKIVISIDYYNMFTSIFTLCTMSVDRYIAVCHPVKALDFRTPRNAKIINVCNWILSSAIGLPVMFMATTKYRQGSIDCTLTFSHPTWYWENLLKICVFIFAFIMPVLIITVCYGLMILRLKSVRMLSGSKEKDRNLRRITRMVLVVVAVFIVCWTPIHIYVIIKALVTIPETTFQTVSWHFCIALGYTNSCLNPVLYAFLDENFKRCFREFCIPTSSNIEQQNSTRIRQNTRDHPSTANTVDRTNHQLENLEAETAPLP

CSCC[C@H](NC(=O)[C@H](Cc1ccccc1)NC(=O)CNC(=O)CNC(=O)[C@@H](N)Cc1ccccc1)C(=O)N[C@@H](CCCNC(=N)N)C(=O)N[C@@H](CCCNC(=N)N)C(=O)N[C@@H](CCCCN)C(N)=O [LIH383]
activation or inhibition of MOR (MOR): no activation or inhibition | activation or inhibition of DOR (DOR): no activation or inhibition | activation or inhibition of NOP (NOP): no activation or inhibition | β-arrestin recruitment to the other chemokine receptors [1]: no activation or inhibition | agonist activity on mouse ACKR3 compared with human ACKR3 (mouse ACKR3 (mACKR3)): equivalent activity on human and mouse ACKR3 | effect of pretreatment on uptake of labelled dynorphin A (1-13) by smNPCs (smNPCs): significantly reduced | EC50 (range in words) (ACKR3 [2]): subnanomolar range | potency relative to known ACKR3 agonists such as compound 18 (ACKR3 [2]): 20 times | activation or inhibition of KOR (KOR): no activation or inhibition | competition with CXCL12-AF647 for ACKR3 binding (ACKR3 [3]): low nanomolar concentrations | reversal of the ACKR3-mediated impairment of dynorphin A potency to activate KOR by pre-treatment (ACKR3 [4]): reversed
